Source: PubChem BioAssay AID248 (DTP/NCI, 2004)
“And” between values parts separate entries of the source, which are not always exact repeats. Equal values may be shown once. Inconclusive results and toxic doses are left out. Rule as the data show it: active = T/C of 150% or more; inactive = T/C below 125%.

Test system: L1210 leukemia ip in BDF1 mice, survival T/C
Experiment: NCI In Vivo Anticancer Drug Screen. Data for tumor model L1210 Leukemia (intraperitoneal) in B6D2F1 (BDF1) mice
Details: higher = longer survival
Method in brief: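 Tumor cells were implanted, animals were treated, and survival was followed. The result divides the treated measurement by the vehicle-control measurement.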

[1] = endpoint: mean survival time, dose: 10.0 mg/kg/injection, schedule: Q01DX001 (ip), vehicle: saline
[2] = endpoint: mean survival time, dose: 20.0 mg/kg/injection, schedule: Q01DX001 (ip), vehicle: saline
[3] = endpoint: mean survival time, dose: 40.0 mg/kg/injection, schedule: Q01DX001 (ip), vehicle: saline
[4] = endpoint: mean survival time, dose: 100.0 mg/kg/injection, schedule: Q04DX003 (ip), vehicle: saline with Tween-80
[5] = endpoint: mean survival time, dose: 200.0 mg/kg/injection, schedule: Q04DX003 (ip), vehicle: saline with Tween-80
[6] = endpoint: mean survival time, dose: 100.0 mg/kg/injection, schedule: Q01DX009 (ip), vehicle: Klucel (hydroxypropylcellulose) (HPC)
[7] = endpoint: mean survival time, dose: 200.0 mg/kg/injection, schedule: Q01DX009 (ip), vehicle: Klucel (hydroxypropylcellulose) (HPC)
[8] = endpoint: mean survival time, dose: 400.0 mg/kg/injection, schedule: Q01DX009 (ip), vehicle: Klucel (hydroxypropylcellulose) (HPC)

Measured: T/C

COc1cccc2c1C(=O)c1c(O)c3c(c(O)c1C2=O)C[C@@](O)(C(C)=O)C[C@@H]3OC1CC(NC(C)=O)C(O)C(C)O1 (stereo partly specified)
inactive: endpoint: mean survival time, dose: 0.63 mg/kg/injection, schedule: Q01DX001 (ip), vehicle: other 101 % of control | endpoint: mean survival time, dose: 1.25 mg/kg/injection, schedule: Q01DX001 (ip), vehicle: other 103 % of control | endpoint: mean survival time, dose: 1.9 mg/kg/injection, schedule: Q01DX009 (ip), vehicle: saline 103 % of control | endpoint: mean survival time, dose: 2.5 mg/kg/injection, schedule: Q01DX001 (ip), vehicle: other 107 % of control | endpoint: mean survival time, dose: 3.8 mg/kg/injection, schedule: Q01DX009 (ip), vehicle: saline 103 % of control | endpoint: mean survival time, dose: 5.0 mg/kg/injection, schedule: Q01DX001 (ip), vehicle: other 106 % of control | endpoint: mean survival time, dose: 7.5 mg/kg/injection, schedule: Q01DX009 (ip), vehicle: saline 111 % of control | endpoint: mean survival time, dose: 10.0 mg/kg/injection, schedule: Q01DX001 (ip), vehicle: other 111 % of control | [1] 114 % of control | endpoint: mean survival time, dose: 20.0 mg/kg/injection, schedule: Q01DX001 (ip), vehicle: other 123 % of control | [2] 111 % of control | endpoint: mean survival time, dose: 40.0 mg/kg/injection, schedule: Q01DX001 (ip), vehicle: other 122 % of control | [3] 124 % of control | endpoint: mean survival time, dose: 160.0 mg/kg/injection, schedule: Q01DX001 (ip), vehicle: saline 122 % of control | endpoint: mean survival time, dose: 320.0 mg/kg/injection, schedule: Q01DX001 (ip), vehicle: saline 113 % of control | endpoint: median survival time, dose: 75.0 mg/kg/injection, schedule: Q01DX001 (ip), vehicle: propolene glycol 122 % of control and 124 % of control | endpoint: median survival time, dose: 400.0 mg/kg/injection, schedule: Q01DX001 (ip), vehicle: propolene glycol 98 % of control and 88 % of control

CC(=O)Nc1ccc(Br)c(NC(C)=O)n1
inactive: endpoint: mean survival time, dose: 100.0 mg/kg/injection, schedule: Q01DX009 (ip), vehicle: saline with Tween-80 109 % of control | endpoint: mean survival time, dose: 200.0 mg/kg/injection, schedule: Q01DX009 (ip), vehicle: saline with Tween-80 101 % of control | endpoint: mean survival time, dose: 400.0 mg/kg/injection, schedule: Q01DX009 (ip), vehicle: saline with Tween-80 112 % of control

Cc1ccc(S(=O)(=O)Nc2c(C)c(Cl)c(C)c3ccccc23)cc1
inactive: [4] 94 % of control | [5] 87 % of control | endpoint: mean survival time, dose: 400.0 mg/kg/injection, schedule: Q04DX003 (ip), vehicle: saline with Tween-80 89 % of control

c1ccc(C2(c3ccccc3)c3ccc([nH]3)C(c3ccccc3)(c3ccccc3)c3ccc([nH]3)C(c3ccccc3)(c3ccccc3)c3ccc([nH]3)C(c3ccccc3)(c3ccccc3)c3ccc2[nH]3)cc1
inactive: endpoint: mean survival time, dose: 100.0 mg/kg/injection, schedule: Q01DX001 (ip), vehicle: saline 97 % of control | endpoint: mean survival time, dose: 200.0 mg/kg/injection, schedule: Q01DX001 (ip), vehicle: saline 100 % of control | endpoint: mean survival time, dose: 400.0 mg/kg/injection, schedule: Q01DX001 (ip), vehicle: saline 100 % of control

O=C(Nc1cc([N+](=O)[O-])ccc1O)Nc1cccc(Cl)c1Cl
inactive: [6] 88 % of control | [7] 100 % of control | [8] 92 % of control

CCN(CC)C(N)=O
inactive: endpoint: mean survival time, dose: 100.0 mg/kg/injection, schedule: Q01DX009 (ip), vehicle: saline 92 % of control | endpoint: mean survival time, dose: 100.0 mg/kg/injection, schedule: Q04DX003 (ip), vehicle: saline 102 % of control | endpoint: mean survival time, dose: 200.0 mg/kg/injection, schedule: Q01DX009 (ip), vehicle: saline 118 % of control | endpoint: mean survival time, dose: 200.0 mg/kg/injection, schedule: Q04DX003 (ip), vehicle: saline 107 % of control | endpoint: mean survival time, dose: 400.0 mg/kg/injection, schedule: Q01DX009 (ip), vehicle: saline 101 % of control | endpoint: mean survival time, dose: 400.0 mg/kg/injection, schedule: Q04DX003 (ip), vehicle: saline 107 % of control

Nc1nc2nc(I)[nH]c2c(=O)[nH]1
inactive: endpoint: mean survival time, dose: 5.0 mg/kg/injection, schedule: Q01DX001 (ip), vehicle: saline 98 % of control | [1] 102 % of control | [2] 98 % of control | [3] 103 % of control

CCCCCCCCCCCC(=O)[O][Sn]([CH2]CCC)([CH2]CCC)[O]C(=O)CCCCCCCCCCC
inactive: endpoint: mean survival time, dose: 12.5 mg/kg/injection, schedule: Q04DX003 (ip), vehicle: saline with Tween-80 108 % of control

CCOC(CSC)OCC
inactive: endpoint: mean survival time, dose: 100.0 mg/kg/injection, schedule: Q01DX009 (sc), vehicle: olive oil, sesame oil, peanut oil 99 % of control | endpoint: mean survival time, dose: 100.0 mg/kg/injection, schedule: Q04DX003 (sc), vehicle: olive oil, sesame oil, peanut oil 102 % of control | endpoint: mean survival time, dose: 200.0 mg/kg/injection, schedule: Q01DX009 (sc), vehicle: olive oil, sesame oil, peanut oil 94 % of control | endpoint: mean survival time, dose: 200.0 mg/kg/injection, schedule: Q04DX003 (sc), vehicle: olive oil, sesame oil, peanut oil 96 % of control | endpoint: mean survival time, dose: 400.0 mg/kg/injection, schedule: Q01DX009 (sc), vehicle: olive oil, sesame oil, peanut oil 91 % of control | endpoint: mean survival time, dose: 400.0 mg/kg/injection, schedule: Q04DX003 (sc), vehicle: olive oil, sesame oil, peanut oil 94 % of control

O=C(O)CCCCCCC1CCCC1=O (stereo unspecified)
inactive: endpoint: mean survival time, dose: 100.0 mg/kg/injection, schedule: Q01DX009 (ip), vehicle: saline sonified 97 % of control | endpoint: mean survival time, dose: 200.0 mg/kg/injection, schedule: Q01DX009 (ip), vehicle: saline sonified 91 % of control | endpoint: mean survival time, dose: 400.0 mg/kg/injection, schedule: Q01DX009 (ip), vehicle: saline sonified 97 % of control

N#Cc1ccc(OCc2nc(N)nc(N)c2-c2ccc(Cl)cc2)cc1
inactive: [4] 104 % of control | [5] 100 % of control

Nc1nc(SN=Nc2ccc(S(=O)(=O)O)cc2)c2[nH]cnc2n1
inactive: endpoint: mean survival time, dose: 11.0 mg/kg/injection, schedule: Q01DX Z (ip), vehicle: alkali diluted with saline 110 % of control | endpoint: mean survival time, dose: 17.0 mg/kg/injection, schedule: Q01DX Z (ip), vehicle: alkali diluted with saline 120 % of control | endpoint: mean survival time, dose: 25.0 mg/kg/injection, schedule: Q01DX Z (ip), vehicle: alkali diluted with saline 112 % of control | endpoint: mean survival time, dose: 38.0 mg/kg/injection, schedule: Q01DX Z (ip), vehicle: alkali diluted with saline 104 % of control

CC(C)C1OCCO1
inactive: endpoint: mean survival time, dose: 50.0 mg/kg/injection, schedule: Q01DX009 (ip), vehicle: acetone 92 % of control | endpoint: mean survival time, dose: 100.0 mg/kg/injection, schedule: Q01DX009 (ip), vehicle: acetone 101 % of control | endpoint: mean survival time, dose: 200.0 mg/kg/injection, schedule: Q01DX009 (ip), vehicle: acetone 95 % of control

CCCNC(=O)NCCN(CC)c1ccccc1
inactive: endpoint: mean survival time, dose: 100.0 mg/kg/injection, schedule: Q01DX001 (ip), vehicle: carboxymethylcellulose (CMC) 97 % of control | endpoint: mean survival time, dose: 100.0 mg/kg/injection, schedule: Q01DX009 (ip), vehicle: carboxymethylcellulose (CMC) 93 % of control and 101 % of control | endpoint: mean survival time, dose: 100.0 mg/kg/injection, schedule: Q04DX002 (ip), vehicle: carboxymethylcellulose (CMC) 94 % of control and 97 % of control | endpoint: mean survival time, dose: 100.0 mg/kg/injection, schedule: Q04DX003 (ip), vehicle: carboxymethylcellulose (CMC) 100 % of control | endpoint: mean survival time, dose: 200.0 mg/kg/injection, schedule: Q01DX001 (ip), vehicle: carboxymethylcellulose (CMC) 96 % of control | endpoint: mean survival time, dose: 200.0 mg/kg/injection, schedule: Q01DX009 (ip), vehicle: carboxymethylcellulose (CMC) 104 % of control and 87 % of control | endpoint: mean survival time, dose: 200.0 mg/kg/injection, schedule: Q04DX002 (ip), vehicle: carboxymethylcellulose (CMC) 105 % of control and 87 % of control | endpoint: mean survival time, dose: 200.0 mg/kg/injection, schedule: Q04DX003 (ip), vehicle: carboxymethylcellulose (CMC) 109 % of control | endpoint: mean survival time, dose: 400.0 mg/kg/injection, schedule: Q01DX001 (ip), vehicle: carboxymethylcellulose (CMC) 96 % of control | endpoint: mean survival time, dose: 400.0 mg/kg/injection, schedule: Q01DX009 (ip), vehicle: carboxymethylcellulose (CMC) 93 % of control and 103 % of control | endpoint: mean survival time, dose: 400.0 mg/kg/injection, schedule: Q04DX002 (ip), vehicle: carboxymethylcellulose (CMC) 93 % of control and 97 % of control | endpoint: mean survival time, dose: 400.0 mg/kg/injection, schedule: Q04DX003 (ip), vehicle: carboxymethylcellulose (CMC) 102 % of control

Fc1cc(N(CCCl)CCCl)ccc1C=Nc1ccc(-n2ccnc2)cc1
inactive: endpoint: mean survival time, dose: 62.5 mg/kg/injection, schedule: Q04DX002 (ip), vehicle: Klucel (hydroxypropylcellulose) (HPC) 102 % of control | endpoint: mean survival time, dose: 125.0 mg/kg/injection, schedule: Q04DX002 (ip), vehicle: Klucel (hydroxypropylcellulose) (HPC) 106 % of control | endpoint: mean survival time, dose: 250.0 mg/kg/injection, schedule: Q04DX002 (ip), vehicle: Klucel (hydroxypropylcellulose) (HPC) 106 % of control

C(=N\Nc1nc2ccccc2s1)/c1ccncc1
inactive: [6] 106 % of control | [7] 96 % of control | [8] 98 % of control

C#CCCCCCCC#CCCCCCCC#C
inactive: endpoint: mean survival time, dose: 100.0 mg/kg/injection, schedule: Q04DX003 (ip), vehicle: acetone 100 % of control | endpoint: mean survival time, dose: 200.0 mg/kg/injection, schedule: Q04DX003 (ip), vehicle: acetone 110 % of control

COc1ccc([N+](=O)[O-])cc1NC(=O)Nc1cccc(C(=O)O)c1
inactive: endpoint: mean survival time, dose: 50.0 mg/kg/injection, schedule: Q01DX009 (ip), vehicle: Klucel (hydroxypropylcellulose) (HPC) 101 % of control | [6] 96 % of control | [7] 86 % of control
